# Test results: patent US20240218022A1, “ANTI-VISTA MACROCYCLIC PEPTIDES AND COMPOSITIONS” (BRISTOL-MYERS SQUIBB COMPANY, priority 2022, published 2024)
# Positions of bridges follow the written chain, without caps; N, C: chain ends. Non-standard residues stand in square brackets, D forms with d. Residues, ends and D or L forms follow the SMILES beside them. Phe(3-Me) = Cc1cccc(C[C@H](N)C(=O)O)c1; Cit = NC(=O)NCCC[C@H](N)C(=O)O; Ahp(2) = CCCCC[C@H](N)C(=O)O; NHexGly = CCCCCCNCC(=O)O; Nle = CCCC[C@H](N)C(=O)O; Orn = NCCC[C@H](N)C(=O)O
# Molecular target: T1, mouse VISTA (mVISTA) (Mus musculus, UniProt Q9D659)
# T1 construct: expressed in transfected cells; host or cells: Human embryonic kidney 293T cells
# T1 sequence (Q9D659 33-308): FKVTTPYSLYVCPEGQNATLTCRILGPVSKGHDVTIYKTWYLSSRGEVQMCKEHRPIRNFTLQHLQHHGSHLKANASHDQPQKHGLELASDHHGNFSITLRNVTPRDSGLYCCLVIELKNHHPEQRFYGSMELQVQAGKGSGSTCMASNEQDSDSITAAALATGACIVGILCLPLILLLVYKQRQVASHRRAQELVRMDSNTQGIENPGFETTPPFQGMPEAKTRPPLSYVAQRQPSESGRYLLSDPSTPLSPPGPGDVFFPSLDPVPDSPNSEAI
# Experiment: Cell-Based Binding High-Content Assay For mVISTA (HC CBA mVISTA)
# Details: the 19th table, scaffold drawing 22; read-out: HC CBA mVISTA IC50
# How it was run: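 This high-content binding assay uses HEK293T cells expressing murine VISTA, measuring displacement of 2 nM biotinylated peptide by fluorescent streptavidin imaging. IC50 values come from four-parameter logistic fitting.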
row,IC50 [nM],Structure (SMILES)
1,7.6,CCCCCCN1CC(=O)N[C@@H](Cc2ccc(O)cc2)C(=O)N[C@@H](CCCC)C(=O)N[C@@H](CC(=O)O)C(=O)N[C@@H](CCCN)C(=O)N[C@@H](CC(C)C)C(=O)N[C@@H](CCCCC)C(=O)N2CCC[C@H]2C(=O)N[C@@H](C(C)C)C(=O)N[C@@H](CC(=O)O)C(=O)N[C@H](C(=O)N[C@@H](CC(=O)O)C(N)=O)CSCC(=O)N[C@@H](Cc2cccc(C)c2)C(=O)N[C@@H](Cc2c[nH]c3ccccc23)C(=O)N[C@@H](CC(=O)O)C1=O [compound 1418] ({CH2CO}-[Phe(3-Me)]WD[NHexGly]Y[Nle]D[Orn]L[Ahp(2)]PVDCD-NH2; thioether N-14)
2,8.1,CCCCCCN1CC(=O)N[C@@H](Cc2ccc(O)cc2)C(=O)N[C@@H](CCCC)C(=O)N[C@@H](CC(=O)O)C(=O)N[C@@H](CCCNC(=N)N)C(=O)N[C@@H](CC(C)C)C(=O)N[C@@H](CCCCC)C(=O)N2CCC[C@H]2C(=O)N[C@@H](C(C)C)C(=O)N[C@@H](CC(=O)O)C(=O)N[C@H](C(=O)N[C@@H](CC(=O)O)C(N)=O)CSCC(=O)N[C@@H](Cc2cccc(C)c2)C(=O)N[C@@H](Cc2c[nH]c3ccccc23)C(=O)N[C@@H](CC(=O)O)C1=O [compound 1419] ({CH2CO}-[Phe(3-Me)]WD[NHexGly]Y[Nle]DRL[Ahp(2)]PVDCD-NH2; thioether N-14)
3,11.9,CCCCCCN1CC(=O)N[C@@H](Cc2ccc(O)cc2)C(=O)N[C@@H](CCCC)C(=O)N[C@@H](CC(N)=O)C(=O)N[C@@H](CCCNC(=N)N)C(=O)N[C@@H](CC(C)C)C(=O)N[C@@H](CCCCC)C(=O)N2CCC[C@H]2C(=O)N[C@@H](C(C)C)C(=O)N[C@@H](CC(=O)O)C(=O)N[C@H](C(=O)N[C@@H](CO)C(=O)O)CSCC(=O)N[C@@H](Cc2cccc(C)c2)C(=O)N[C@@H](Cc2c[nH]c3ccccc23)C(=O)N[C@@H](CC(=O)O)C1=O [compound 1424] ({CH2CO}-[Phe(3-Me)]WD[NHexGly]Y[Nle]NRL[Ahp(2)]PVDCS-OH; thioether N-14)
4,9.4,CCCCCCN1CC(=O)N[C@@H](Cc2ccc(O)cc2)C(=O)N[C@@H](CCCC)C(=O)N[C@@H](CC(=O)O)C(=O)N[C@@H](CCCN)C(=O)N[C@@H](CC(C)C)C(=O)N[C@@H](CCCCC)C(=O)N2CCC[C@H]2C(=O)N[C@@H](C(C)C)C(=O)N[C@@H](CC(=O)O)C(=O)N[C@H](C(=O)N[C@@H](CO)C(N)=O)CSCC(=O)N[C@@H](Cc2cccc(C)c2)C(=O)N[C@@H](Cc2c[nH]c3ccccc23)C(=O)N[C@@H](CC(=O)O)C1=O [compound 1427] ({CH2CO}-[Phe(3-Me)]WD[NHexGly]Y[Nle]D[Orn]L[Ahp(2)]PVDCS-NH2; thioether N-14)
5,13.6,CCCCCCN1CC(=O)N[C@@H](Cc2ccc(O)cc2)C(=O)N[C@@H](CCCC)C(=O)N[C@@H](CC(=O)O)C(=O)N[C@@H](CCCNC(=N)N)C(=O)N[C@@H](CC(C)C)C(=O)N[C@@H](CCCCC)C(=O)N2CCC[C@H]2C(=O)N[C@@H](C(C)C)C(=O)N[C@@H](CC(=O)O)C(=O)N[C@H](C(=O)N[C@@H](CO)C(N)=O)CSCC(=O)N[C@@H](Cc2cccc(C)c2)C(=O)N[C@@H](Cc2c[nH]c3ccccc23)C(=O)N[C@@H](CC(=O)O)C1=O [compound 1428] ({CH2CO}-[Phe(3-Me)]WD[NHexGly]Y[Nle]DRL[Ahp(2)]PVDCS-NH2; thioether N-14)

# The remaining lines, values behind:
row,Structure (SMILES),IC50 [nM]
1,CCCCCCN1CC(=O)N[C@@H](Cc2ccc(O)cc2)C(=O)N[C@@H](CCCC)C(=O)N[C@@H](CC(N)=O)C(=O)N[C@@H](CCCNC(=N)N)C(=O)N[C@@H](CC(C)C)C(=O)N[C@@H](CCCCC)C(=O)N2CCC[C@H]2C(=O)N[C@@H](C(C)C)C(=O)N[C@@H](CC(=O)O)C(=O)N[C@H](C(=O)NCC(=O)O)CSCC(=O)N[C@@H](Cc2cccc(C)c2)C(=O)N[C@@H](Cc2c[nH]c3ccccc23)C(=O)N[C@@H](CC(=O)O)C1=O [compound 1420] ({CH2CO}-[Phe(3-Me)]WD[NHexGly]Y[Nle]NRL[Ahp(2)]PVDCG-OH; thioether N-14),2
2,CCCCCCN1CC(=O)N[C@@H](Cc2ccc(O)cc2)C(=O)N[C@@H](CCCC)C(=O)NCC(=O)N[C@@H](CCCNC(=N)N)C(=O)N[C@@H](CC(C)C)C(=O)N[C@@H](CCCCC)C(=O)N2CCC[C@H]2C(=O)N[C@@H](C(C)C)C(=O)N[C@@H](CC(=O)O)C(=O)N[C@H](C(=O)NCC(=O)O)CSCC(=O)N[C@@H](Cc2cccc(C)c2)C(=O)N[C@@H](Cc2c[nH]c3ccccc23)C(=O)N[C@@H](CC(=O)O)C1=O [compound 1421] ({CH2CO}-[Phe(3-Me)]WD[NHexGly]Y[Nle]GRL[Ahp(2)]PVDCG-OH; thioether N-14),3.1
3,CCCCCCN1CC(=O)N[C@@H](Cc2ccc(O)cc2)C(=O)N[C@@H](CC(C)C)C(=O)N[C@@H](CC(N)=O)C(=O)N[C@@H](CCCNC(=N)N)C(=O)N[C@@H](CC(C)C)C(=O)N[C@@H](CCCCC)C(=O)N2CCC[C@H]2C(=O)N[C@@H](C(C)C)C(=O)N[C@@H](C(C)C)C(=O)N[C@H](C(=O)NCC(=O)O)CSCC(=O)N[C@@H](Cc2cccc(C)c2)C(=O)N[C@@H](Cc2c[nH]c3ccccc23)C(=O)N[C@@H](CC(=O)O)C1=O [compound 1422] ({CH2CO}-[Phe(3-Me)]WD[NHexGly]YLNRL[Ahp(2)]PVVCG-OH; thioether N-14),4.2
4,CCCCCCN1CC(=O)N[C@@H](Cc2ccc(O)cc2)C(=O)N[C@@H](CCCC)C(=O)N[C@@H](CC(N)=O)C(=O)N[C@@H](CCCNC(N)=O)C(=O)N[C@@H](CC(C)C)C(=O)N[C@@H](CCCCC)C(=O)N2CCC[C@H]2C(=O)N[C@@H](C(C)C)C(=O)N[C@@H](CC(=O)O)C(=O)N[C@H](C(=O)NCC(=O)O)CSCC(=O)N[C@@H](Cc2cccc(C)c2)C(=O)N[C@@H](Cc2c[nH]c3ccccc23)C(=O)N[C@@H](CC(=O)O)C1=O [compound 1423] ({CH2CO}-[Phe(3-Me)]WD[NHexGly]Y[Nle]N[Cit]L[Ahp(2)]PVDCG-OH; thioether N-14),16.7
5,CCCCCCN1CC(=O)N[C@@H](Cc2ccc(O)cc2)C(=O)N[C@@H](CCCC)C(=O)NCC(=O)N[C@@H](CCCNC(=N)N)C(=O)N[C@@H](CC(C)C)C(=O)N[C@@H](CCCCC)C(=O)N2CCC[C@H]2C(=O)N[C@@H](C(C)C)C(=O)N[C@@H](CC(=O)O)C(=O)N[C@H](C(=O)N[C@@H](CO)C(=O)O)CSCC(=O)N[C@@H](Cc2cccc(C)c2)C(=O)N[C@@H](Cc2c[nH]c3ccccc23)C(=O)N[C@@H](CC(=O)O)C1=O [compound 1425] ({CH2CO}-[Phe(3-Me)]WD[NHexGly]Y[Nle]GRL[Ahp(2)]PVDCS-OH; thioether N-14),13.4
6,CCCCCCN1CC(=O)N[C@@H](Cc2ccc(O)cc2)C(=O)N[C@@H](CC(C)C)C(=O)N[C@@H](CC(N)=O)C(=O)N[C@@H](CCCNC(=N)N)C(=O)N[C@@H](CC(C)C)C(=O)N[C@@H](CCCCC)C(=O)N2CCC[C@H]2C(=O)N[C@@H](C(C)C)C(=O)N[C@@H](C(C)C)C(=O)N[C@H](C(=O)N[C@@H](CO)C(=O)O)CSCC(=O)N[C@@H](Cc2cccc(C)c2)C(=O)N[C@@H](Cc2c[nH]c3ccccc23)C(=O)N[C@@H](CC(=O)O)C1=O [compound 1426] ({CH2CO}-[Phe(3-Me)]WD[NHexGly]YLNRL[Ahp(2)]PVVCS-OH; thioether N-14),4.1
